Where no end group is shown, it is not given here.
What was measured:
[1] = tested on: adenylate cyclase; details: relative to glucagon = 100; liver membranes
Description: Adenylate Cyclase Assay. The assay on liver membranes was performed according to Salomon et al. [Salomon, Y., Londos, C. & Rodbell, M. Anal. Biochem. 58, 541,548 (1974)]. The released cAMP was mixed with [8-^3 H]cAMP measured with a high affinity cAMP binding protein.
The purpose of the adenylate cyclase assays is to measure the ability of the compound under test to stimulate the activity of adenylate cyclase. The assays are used to measure relative potency, maximum activity and inhibition index.
The inhibition index, defined above, was determined from adenylate cyclase assays by two different protocols.
2. […] Increasing amounts of antagonist were then added and the concentration that reduced the response to 45% of maximum was determined.

[2] = tested on: glucagon receptor; details: prior-art antagonist; cited from earlier work
[3] = tested on: hepatocyte membrane; details: prior-art antagonist; cited from earlier work
[4] = tested on: adenylate cyclase; details: prior-art antagonist; cited from earlier work

Row | Compound | ADENYL CYCLASE ASSAYS Rel. Potency [1] | binding to the glucagon receptor (in words) [2] | activation of another binding system leading to inositol triphosphate and calcium ions (in words) [3] | activation of adenylate cyclase (in words) [4]
1 | CSCC[C@H](NC(=O)[C@H](CC(C)C)NC(=O)[C@H](Cc1c[nH]c2ccccc12)NC(=O)[C@H](CCC(N)=O)NC(=O)[C@@H](NC(=O)[C@H](Cc1ccccc1)NC(=O)[C@H](CC(=O)O)NC(=O)[C@H](CCC(N)=O)NC(=O)[C@H](C)NC(=O)[C@H](CCCNC(=N)N)NC(=O)[C@H](CCCNC(=N)N)NC(=O)[C@H](CO)NC(=O)[C@H](CC(=O)O)NC(=O)[C@H](CC(C)C)NC(=O)[C@H](Cc1ccc(O)cc1)NC(=O)[C@H](CCCCN)NC(=O)[C@H](CO)NC(=O)[C@H](Cc1ccc(O)cc1)NC(=O)[C@H](CCC(=O)O)NC(=O)[C@H](CO)NC(=O)[C@@H](NC(=O)[C@H](Cc1ccccc1)NC(=O)[C@@H](NC(=O)CNC(=O)[C@H](CCC(N)=O)NC(=O)[C@@H](N)CO)[C@@H](C)O)[C@@H](C)O)C(C)C)C(=O)N[C@@H](CC(N)=O)C(=O)N[C@H](C(=O)O)[C@@H](C)O [Compound 1, des-His^1-[Glu^9] glucagon] | < 0.0008 | – | – | –
2 | CSCC[C@H](NC(=O)[C@H](CC(C)C)NC(=O)[C@H](Cc1c[nH]c2ccccc12)NC(=O)[C@H](CCC(N)=O)NC(=O)[C@@H](NC(=O)[C@H](Cc1ccccc1)NC(=O)[C@H](CC(=O)O)NC(=O)[C@H](CCC(N)=O)NC(=O)[C@H](C)NC(=O)[C@H](CCCNC(=N)N)NC(=O)[C@H](CCCNC(=N)N)NC(=O)[C@H](CO)NC(=O)[C@H](CC(=O)O)NC(=O)[C@H](CC(C)C)NC(=O)[C@H](Cc1ccc(O)cc1)NC(=O)[C@H](CCCCN)NC(=O)[C@H](CO)NC(=O)[C@H](Cc1ccc(O)cc1)NC(=O)[C@H](CCC(=O)O)NC(=O)[C@H](CO)NC(=O)[C@@H](NC(=O)[C@H](Cc1ccccc1)NC(=O)[C@@H](NC(=O)CNC(=O)[C@H](CCC(N)=O)NC(=O)[C@@H](N)CO)[C@@H](C)O)[C@@H](C)O)C(C)C)C(=O)N[C@@H](CC(N)=O)C(=O)N[C@H](C(N)=O)[C@@H](C)O [Compound 2, des-His^1-[Glu^9] glucagon amide] | < 0.0001 | – | – | –
3 | Nα- trinitrophenyl [12-homoarginine] glucagon | – | does bind to the glucagon receptor | activates another binding system | without significant activation
4 | SQGTFTSEYSKYLDSKKAQEFVQWLMNT [Compound 3, des-His^1-[Glu^9 -Lys^17,18 Glu^21] glucagon] | 0.0001 | – | – | –

— patent US4879273A (The Rockefeller University, priority 1987, dated 1989)
